{"source": "patent US8598383B2", "about": "“Pharmaceutical composition for treating or preventing degenerative and inflammatory diseases” (Neurotech Pharmaceuticals Co., Ltd., priority 2006, dated 2013)", "key": {"[1]": {"system": "IL-1beta gene expression in BV2 cell line", "assay": "Suppressing effect on gene expression (RT-PCR), IL-1beta", "assay_type": "cell-based", "details": "Mus musculus, BV-2, 24 h, gene expression vs LPS control, BV2, 24 hours", "method": "Effects of the 2-hydroxybenzoic acid derivatives on iNOS gene expression in BV2 cell line were evaluated. 100 mm dish was inoculated with 1×10^6 cells of BV2 cell line, and treated with both LPS, inflammation-inducing material, and 1˜100 uM of the 2-hydroxybenzoic acid derivative of the present invention, together, in regular concentration interval. After 24 hours of incubation, RNA was extracted. Extracted RNA was used in reverse transcription and polymerase chain reaction, and expression patterns of TNF-alpha, IL-1beta and iNOS were compared."}, "[2]": {"system": "TNF-α production in BV2 cell line", "assay": "Suppressing effect on production of cytokine (ELISA), TNF-α", "assay_type": "cell-based", "details": "Mus musculus, BV-2, level in medium, LPS + 100 uM of sample, 24 hours", "method": "(§1) Effects of the 2-hydroxybenzoic acid derivatives on production of cytokine in BV2 cell line were evaluated. 24-well plate was inoculated with 1×10^6 cells of BV2 cell line, and treated with both LPS, inflammation-inducing material, and 100 uM of sample (the 2-hydroxybenzoic acid derivative or comparative drug), together. After 24 hours of incubation, culture medium was collected. The levels of cytokines, TNF-α and IL-6, in the medium were evaluated by ELISA method."}, "[3]": {"system": "IL-6 production in BV2 cell line", "assay": "Suppressing effect on production of cytokine (ELISA), IL-6", "assay_type": "cell-based", "details": "Mus musculus, BV-2, level in medium, LPS + 100 uM of sample, 24 hours", "method": "as §1"}, "[4]": {"system": "gastric mucous membrane", "assay": "Safety test about induction of gastric mucous membrane damage", "assay_type": "in vivo", "details": "oral, up to 1,000 mg/kg, aspirin as control", "method": "Test samples were orally administered at different doses to evaluate the degree of the gastric mucous membrane damage. Aspirin was used as control.\nFIG. 2 is results showing degrees of the gastric mucous membrane damage. Test samples were orally administered at indicated doses. […] Indomethacine, ibuprofen and celecoxib were used as control.\nConventional NSAIDs have side effects causing damages to the gastric mucous membrane. Therefore, it was evaluated whether compound 2 having anti-inflammatory effect causes the gastric damage or not. 30, 100 or 300 mg/kg of aspirin was orally administered as control."}, "[5]": {"system": "gastric bleeding induced by 60% EtOH/150 mM HCl", "assay": "Gastritis induced by alcohol and hydrochloric acid", "assay_type": "in vivo, rat", "details": "oral", "method": "FIG. 8 is results showing protecting effect of compound on gastrointestinal bleeding caused by alcohol/hydrochloric acid (EtOH/HCl). A is a picture of normal rat stomach. B is a picture of rat stomach, wherein gastrointestinal bleeding was caused by oral administration of 60% EtOH/150 mM HCl after 200˜250 g of rat was fasted for 24 hours. C is a picture of rat stomach, wherein rat was pre-treated with compound 230 minutes before administration of alcohol/HCl, and stomach was taken out 90 minutes after gastrointestinal bleeding. D is a graph quantifying damaged area to evaluate the degree of stomach injury.\nEffect of the 2-hydroxybenzoic acid derivative on gastritis induced by alcohol and hydrochloric acid was evaluated. 200˜250 g of male SD rat was fasted for 24 hours, and 60% EtOH/150 mM HCl was orally administered to induce gastric bleeding (gastric injury). Compound 2 was orally administered according to indicated dose 30 minutes before the gastric bleeding, and stomach was taken out 90 minutes after gastric bleeding to evaluate the degree of gastric injury."}, "[6]": {"system": "gastric bleeding caused by alcohol", "assay": "Alcoholic gastritis", "assay_type": "in vivo, rat", "details": "pre-treated 1 hour before alcohol", "method": "FIG. 9 is results showing protecting effect of compound 2 on alcoholic gastritis. A is a picture of normal rat stomach. B is a picture of rat stomach, wherein gastrointestinal bleeding was caused by oral administration of ethanol (4 ml/kg) after 250 g of rat was fasted for 24 hours. C is a picture of rat stomach, wherein rat was pre-treated with compound 21 hour before induction of gastrointestinal bleeding, and stomach was taken out 90 minutes after gastrointestinal bleeding. D is a graph quantifying the degree of stomach injury.\nEffect of the 2-hydroxybenzoic acid derivative on alcoholic gastritis was evaluated. 250 g of rat was fasted for 24 hours, and alcohol was orally administered to cause gastric bleeding (B)."}, "[7]": {"system": "NSAID-induced gastritis", "assay": "Gastritis caused by NSAID (indomethacine)", "assay_type": "in vivo, rat", "details": "indomethacine 6 hour and 12 hour models; given 1 hour before NSAID", "method": "FIG. 10 is results showing protecting effect of compound 2 on gastritis induced by NSAID. 250 g of rat was fasted for 24 hours, and indomethacin was orally administered to cause gastrointestinal bleeding (A and C). Compound 2 was administered 1 hour before administration of NSAID (B and D), and stomach was taken out 6 hours (A and B) or 12 hours (C and D) after gastrointestinal bleeding.\nEffect of the 2-hydroxybenzoic acid derivative on NSAID-induced gastritis was evaluated."}, "[8]": {"system": "IL-1alpha in exudation of air pouch", "assay": "Zymosan air pouch inflammation model, IL-1alpha (ELISA)", "assay_type": "in vivo", "details": "3-300 mg/kg once oral 1 hour before zymosan, 4 hours later", "method": "FIG. 13 is graphs showing how much compound 2 decreases the level of IL-1alpha induced by zymosan, one of arthritis animal models. 1% zymosan was administered with air pouch, and compound 2 was once orally administered according to indicated dose 1 hour before administration of zymosan. The level of IL-1alpha in an exudation of air pouch was evaluated by ELISA method 4 hours later.\nAnti-inflammation effect of compound 2 in arthritis model was evaluated with zymosan. 0.5 ml of 1% zymosan was administered with air pouch, and 3-300 mg/kg of compound 2 was once orally administered 1 hour before administration of zymosan. Edema, a main symptom of arthritis, and the level of cytokine were observed 4 hours later."}, "[9]": {"system": "TNF-α, IL-1β and IL-6 in brain", "assay": "Cytokines in brain of APP/PS1 dementia mice (ELISA)", "assay_type": "in vivo, mouse", "details": "25 mg/kg/day in chow for 7 months, vs APP/PS1 fed general chow", "method": "FIG. 25 are graphs showing the levels of TNF-α, IL-1β or IL-6 in brain of 10.5 month-old APP/PS1 dementia mouse (Tg+). The levels were evaluated by ELISA method.\nAfter administration of drug for 7 months, the levels of TNF-α, IL-1β and IL-6 were quantified by ELISA (mean±SEM, n=3-5). Significant difference from control (APP/PS1 mouse fed with general chow only), p<0.05 using one-way ANOVA according to Student-Neuman-Keuls' test."}, "[10]": {"system": "APP/PS1 transgenic mice behavior", "assay": "Elevated plus maze test in APP/PS1 mice", "assay_type": "in vivo, mouse", "details": "25 mg/kg/day for 7 months, vs chow only", "method": "APP/PS1 transgenic mice were fed chow alone or containing 25 mg/kg/day of compound 2, for 7 months (3.5˜10.5 months). After administration of 7 months, Elevated plus maze test was performed to evaluate the behavior improvement. Elevated plus maze has two open arms (30 cm×6 cm×0.5 cm) and two closed arms (30 cm×6 cm×15 cm), and also has 6 cm×6 cm of center platform. In Elevated plus maze test, mouse was carefully laid in the center with the head of the mouse toward open arm. The time that the mouse spent in the open arm was recorded for 5 minutes (mean±SEM, n=3-5). *, Significant difference from control (APP/PS1 mouse fed with general chow only), p<0.05 using one-way ANOVA according to Student-Neuman-Keuls' test."}}, "data": [{"smiles": "O=C(O)c1cc(NCCc2ccc(C(F)(F)F)cc2)ccc1O", "note": "[compound 2, 2-hydroxy-5-[2-(4-trifluoromethyl-phenyl)-ethylamino]-benzoic acid]", "values": [{"measurement": "inhibition at 100 µM", "setting": "[1]", "result": 75.1, "unit": "%"}, {"measurement": "inhibition at 100 µM", "setting": "[2]", "result": 62.3, "unit": "%"}, {"measurement": "inhibition at 100 µM", "setting": "[3]", "result": 70.3, "unit": "%"}, {"measurement": "gastric mucous membrane damage", "setting": "[4]", "result": "did not cause damage to the gastric mucous membrane"}, {"measurement": "gastric mucous membrane damage", "setting": "[4]; listed as Compound 2", "result": "did not cause the gastric side effect"}, {"measurement": "toxicity in EtOH/HCl gastritis test", "setting": "[5]", "result": "did not show any toxicity"}, {"measurement": "protection against gastric bleeding", "setting": "[5]; 30 minutes before EtOH/HCl, stomach taken out 90 minutes after", "result": "protected stomach against gastric bleeding induction"}, {"measurement": "gastric bleeding", "setting": "[6]", "result": "significantly reduced gastric bleeding"}, {"measurement": "protecting effect on stomach", "setting": "[7]", "result": "excellent protecting effect on stomach"}, {"measurement": "level of IL-1alpha", "setting": "[8]", "result": "decreased in a dose-dependent manner"}, {"measurement": "levels of TNF-α, IL-1β and IL-6 in brain", "setting": "[9]", "result": "significantly reduced the levels of TNF-α, IL-β and IL-6"}, {"measurement": "time spent in the open arm", "setting": "[10]", "result": "decreased the time for mouse to stay in the open arm"}]}]}
